Earlier results on two molecules are cited in patent publication US20220184007A1, “FORMULATIONS” (Synchroneuron Inc., priority 2019, published 2022).

Data set [1] relates to psychogenic nonepileptic seizures. Conditions: flexible-dose, 12 weeks, 33 subjects, statistically underpowered.
Data set [2] shares this test system. The settings on record: flexible-dose, open-label, uncontrolled study.

SMILES strings stand for the structures.

Take `CN[C@H]1CC[C@@H](c2ccc(Cl)c(Cl)c2)c2ccccc21` [sertraline]: the “biweekly event frequency change” value in data set [1] is reported as “no difference between groups”. Consider `COc1ccc(C(CN(C)C)C2(O)CCCCC2)cc1` (centres unmarked) [venlafaxine], for which the event reduction result in data set [2] was “significant event reduction”.
